Publication PMC8397297 (ACS Chemical Neuroscience, 2021)
Like-named read-outs stand apart in the source and are kept apart here.

Assays:
mGAT2 [1] = target: T1, mGAT2 (Mus musculus, UniProt P31651); conditions: cited from earlier work
T1 construct: expressed in transfected cells; host or cells: HEK-293
T1 sequence (P31651 1-614): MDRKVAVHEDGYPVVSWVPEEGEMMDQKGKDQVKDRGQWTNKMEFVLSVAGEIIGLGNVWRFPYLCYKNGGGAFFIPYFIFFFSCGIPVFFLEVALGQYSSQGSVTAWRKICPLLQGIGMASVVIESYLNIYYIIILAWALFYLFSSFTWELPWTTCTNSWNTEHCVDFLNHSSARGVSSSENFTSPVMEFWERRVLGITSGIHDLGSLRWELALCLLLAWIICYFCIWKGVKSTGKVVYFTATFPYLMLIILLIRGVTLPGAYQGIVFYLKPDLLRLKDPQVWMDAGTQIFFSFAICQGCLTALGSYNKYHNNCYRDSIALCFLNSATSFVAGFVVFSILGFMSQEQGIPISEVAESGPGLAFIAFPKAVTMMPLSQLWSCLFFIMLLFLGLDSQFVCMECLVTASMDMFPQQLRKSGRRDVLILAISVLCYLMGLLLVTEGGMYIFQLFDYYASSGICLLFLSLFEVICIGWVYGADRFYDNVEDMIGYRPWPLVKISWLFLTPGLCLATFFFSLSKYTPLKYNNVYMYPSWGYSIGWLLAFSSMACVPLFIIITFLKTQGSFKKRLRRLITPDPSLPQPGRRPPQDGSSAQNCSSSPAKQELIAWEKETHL

mGAT3 [2] = target: T2, mGAT3 (Mus musculus, UniProt P31649); conditions: cited from earlier work
T2 construct: expressed in transfected cells; host or cells: HEK-293
T2 sequence (P31649 1-602): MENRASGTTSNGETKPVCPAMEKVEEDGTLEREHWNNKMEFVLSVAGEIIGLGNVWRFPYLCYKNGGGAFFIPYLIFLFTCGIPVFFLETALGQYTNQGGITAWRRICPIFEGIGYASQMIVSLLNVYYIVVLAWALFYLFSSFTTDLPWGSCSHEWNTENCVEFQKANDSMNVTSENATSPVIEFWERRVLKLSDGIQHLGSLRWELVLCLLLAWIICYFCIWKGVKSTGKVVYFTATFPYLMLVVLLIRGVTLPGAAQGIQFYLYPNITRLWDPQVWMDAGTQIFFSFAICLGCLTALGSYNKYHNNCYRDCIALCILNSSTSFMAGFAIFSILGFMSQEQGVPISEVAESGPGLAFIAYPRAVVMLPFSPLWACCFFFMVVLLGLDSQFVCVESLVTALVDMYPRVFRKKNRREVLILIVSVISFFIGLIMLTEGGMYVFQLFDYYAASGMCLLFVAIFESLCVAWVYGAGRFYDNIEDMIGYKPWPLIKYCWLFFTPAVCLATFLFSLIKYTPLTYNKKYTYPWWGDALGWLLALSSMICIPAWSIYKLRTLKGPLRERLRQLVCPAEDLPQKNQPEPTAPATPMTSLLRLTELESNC

mGAT3 [3] = target: T2, mGAT3; test: [3H]GABA uptake assay in HEK-293 cells stably expressing mGAT3; assay type: cell-based; conditions: for remaining [3H]GABA uptake mGAT3: in the presence of 100 μM inhibitor; for IC50: [3H]GABA uptake, read-out: pIC50 ± SEM mGAT3 (converted)
mGAT4 = target: T3, mGAT4 (Mus musculus, UniProt P31650); test: [3H]GABA uptake assay in HEK-293 cells stably expressing mGAT4; assay type: cell-based; conditions: for remaining [3H]GABA uptake mGAT4: in the presence of 100 μM inhibitor; for IC50: [3H]GABA uptake, read-out: pIC50 ± SEM mGAT4 (converted)
T3 construct: expressed in transfected cells; host or cells: HEK-293
T3 sequence (P31650 1-627): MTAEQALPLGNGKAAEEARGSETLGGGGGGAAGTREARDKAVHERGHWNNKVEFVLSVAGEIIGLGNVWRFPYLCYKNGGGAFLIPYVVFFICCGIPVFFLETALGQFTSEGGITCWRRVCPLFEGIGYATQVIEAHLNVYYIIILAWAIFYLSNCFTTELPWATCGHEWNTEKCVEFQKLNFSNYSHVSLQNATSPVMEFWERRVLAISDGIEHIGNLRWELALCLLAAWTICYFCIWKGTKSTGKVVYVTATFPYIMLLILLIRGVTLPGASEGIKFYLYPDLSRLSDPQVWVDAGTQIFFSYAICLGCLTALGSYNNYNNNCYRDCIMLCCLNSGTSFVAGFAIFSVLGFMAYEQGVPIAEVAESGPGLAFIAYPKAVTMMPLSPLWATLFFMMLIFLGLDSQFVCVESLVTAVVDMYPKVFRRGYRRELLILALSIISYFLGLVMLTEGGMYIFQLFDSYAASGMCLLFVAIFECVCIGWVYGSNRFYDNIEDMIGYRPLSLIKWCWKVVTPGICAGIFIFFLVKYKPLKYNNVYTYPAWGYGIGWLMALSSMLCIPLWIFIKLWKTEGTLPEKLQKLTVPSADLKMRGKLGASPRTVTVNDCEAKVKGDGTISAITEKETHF

mGAT1 [4] = target: T4, mGAT1 (Mus musculus, UniProt P31648); test: [3H]GABA uptake assay in HEK-293 cells stably expressing mGAT1; assay type: cell-based; conditions: for IC50: [3H]GABA uptake, read-out: pIC50 ± SEM mGAT1 (converted); for remaining [3H]GABA uptake mGAT1: in the presence of 100 μM inhibitor
T4 construct: expressed in transfected cells; host or cells: HEK-293

mGAT2 [5] = target: T1, mGAT2; test: [3H]GABA uptake assay in HEK-293 cells stably expressing mGAT2; assay type: cell-based; conditions: for remaining [3H]GABA uptake mGAT2: in the presence of 100 μM inhibitor; for IC50: [3H]GABA uptake, read-out: pIC50 ± SEM mGAT2 (converted)
mGAT1 [6] = target: T4, mGAT1; test: competitive MS binding assay with NO711 as unlabeled marker (LC-ESI-MS/MS); conditions: for remaining NO711 binding mGAT1: in the presence of 100 μM inhibitor
Method in brief: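 Competitive MS binding with unlabeled NO711 as marker, quantified by LC–ESI-MS/MS. Compounds screened at 100 μM for inhibition of marker binding.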

Row | SMILES | remaining [3H]GABA uptake mGAT3 (mGAT3 [3]) | remaining [3H]GABA uptake mGAT4 (mGAT4) | remaining [3H]GABA uptake mGAT2 (mGAT2 [5]) | remaining NO711 binding mGAT1 (mGAT1 [6]) | remaining [3H]GABA uptake mGAT1 (mGAT1 [4]) | IC50 (mGAT3 [3]) | IC50 (mGAT4) | further results
1 | COc1ccc(C(OCCN2CCC[C@H](C(=O)O)C2)(c2ccc(OC)cc2)c2ccc(OC)cc2)cc1 [(S)-SNAP-5114, (S)-1-{2-[Tris(4-methoxyphenyl)methoxy]ethyl}piperidine-3-carboxylic acid] |  |  |  |  |  |  |  | remaining [3H]GABA uptake mGAT2 (mGAT2 [1]; 100 μM inhibitor): 100 μM: 56%; mGAT2 % (100μM) (mGAT2 [1]): 56%
2 | COc1ccc(C(OCCN2CCC[C@H](C(=O)O)C2)(c2ccc(OC)cc2)c2ccc(-c3ccc(C=O)cc3)cc2)cc1 [Compound 11] |  |  |  |  |  |  |  | pIC50 mGAT3 (mGAT3 [2]; Figure 2): 5.16; mGAT2 % (100μM) (mGAT2 [1]): 73%
3 | CCC(C(=O)NCc1ccccc1)N1CCC(=C(c2sccc2C)c2sccc2C)CC1 (stereo not drawn) [Compound 64a, N-Benzyl-2-(4-(bis(3-methylthiophen-2-yl)methylene)piperidin-1-yl)butanamide] | 100 μM: 69% | 100 μM: 77% | 100 μM: 108% | 100 μM: 81% |  |  |  | IC50 (mGAT1 [4]): 7.08 µM
4 | CCC(C(=O)NCc1ccccc1Cl)N1CCC(=C(c2sccc2C)c2sccc2C)CC1 (stereo not drawn) [Compound 64b, 2-(4-(Bis(3-methylthiophen-2-yl)methylene)piperidin-1-yl)-N-(2-chlorobenzyl)butanamide] | 100 μM: 61% | 100 μM: 64% | 100 μM: 101% | 100 μM: 108% | 100 μM: 66% |  |  | 
5 | CC(C(=O)NCc1ccccc1)N(C)CCON=C(c1ccccc1)c1ccccc1 (stereo not drawn) [Compound 65, N-Benzyl-2-((2-(((diphenylmethylene)amino)oxy)ethyl)(methyl)amino)propanamide] |  |  |  | 100 μM: 104% |  | 13.8 µM | 26.3 µM | IC50 (mGAT1 [4]): 58.9 µM; IC50 (mGAT2 [5]): 26.3 µM
6 | CCC(C(=O)NCc1ccccc1)N(C)CCON=C(c1ccccc1)c1ccccc1 (stereo not drawn) [Compound 66a, N-Benzyl-2-((2-(((diphenylmethylene)amino)oxy)ethyl)(methyl)amino)butanamide] |  |  | 100 μM: 55% | 100 μM: 104% | 100 μM: 50% | 16.6 µM | 13.8 µM | 
7 | CCC(C(=O)NCc1ccccc1Cl)N(C)CCON=C(c1ccccc1)c1ccccc1 (stereo not drawn) [Compound 66b, N-(2-Chlorobenzyl)-2-((2-(((diphenylmethylene)amino)oxy)ethyl)(methyl)amino)butanamide] |  | 100 μM: 50% | 100 μM: 59% | 100 μM: 107% | 100 μM: 69% | 45.7 µM |  | 
8 | Cc1ccsc1C(=CCCN(C)C(C)C(=O)NCc1ccccc1)c1sccc1C (stereo not drawn) [Compound 67, N-Benzyl-2-((4,4-bis(3-methylthiophen-2-yl)but-3-en-1-yl)(methyl)amino)propanamide] |  |  |  | 100 μM: 83% |  | 13.5 µM | 12 µM | IC50 (mGAT1 [4]): 24.5 µM; IC50 (mGAT2 [5]): 13.2 µM
9 | CCC(C(=O)NCc1ccccc1)N(C)CCC=C(c1sccc1C)c1sccc1C (stereo not drawn) [Compound 68, N-Benzyl-2-((4,4-bis(3-methylthiophen-2-yl)but-3-en-1-yl)(methyl)amino)butanamide] |  |  |  | 100 μM: 81% |  | 30.9 µM | 12.9 µM | IC50 (mGAT1 [4]): 26.9 µM; IC50 (mGAT2 [5]): 39.8 µM
10 | CCOC(=O)[C@H](C)N(C)CCC=C1c2ccccc2C=Cc2ccccc21 [Compound 71, Ethyl N-(3-(5H-Dibenzo[a,d][7]annulen-5-ylidene)propyl)-N-methylalaninate] |  |  | 100 μM: 54% | 100 μM: 103% | 100 μM: 52% | 21.9 µM | 63.1 µM | 
11 | C[C@@H](C(=O)OCc1ccccc1)N(C)CCC=C1c2ccccc2C=Cc2ccccc21 [Compound 72, Benzyl N-(3-(5H-Dibenzo[a,d][7]annulen-5-ylidene)propyl)-N-methylalaninate] | 100 μM: 86% | 100 μM: 97% | 100 μM: 63% | 100 μM: 109% | 100 μM: 98% |  |  | 
12 | CCOC(=O)C(C)N(C)CCC=C(c1sccc1C)c1sccc1C (stereo not drawn) [Compound 73, Ethyl 2-((4,4-Bis(3-methylthiophen-2-yl)but-3-en-1-yl)(methyl)amino)propanoate] |  |  | 100 μM: 52% | 100 μM: 94% | 100 μM: 55% | 25.1 µM | 52.5 µM | 
13 | C[C@@H](C(=O)O)N(C)CCC=C1c2ccccc2C=Cc2ccccc21 [Compound 74, N-(3-(5H-Dibenzo[a,d][7]annulen-5-ylidene)propyl)-N-methylalanine] | 100 μM: 62% | 100 μM: 77% | 100 μM: 55% |  | 100 μM: 55% |  |  | Ki (mGAT1 [6]; MS binding assay, read-out: pKi ± SEM mGAT1 (converted)): 28.8 µM
14 | Cc1ccsc1C(=CCCN(C)C(C)C(=O)O)c1sccc1C (stereo not drawn) [Compound 75, 2-((4,4-Bis(3-methylthiophen-2-yl)but-3-en-1-yl)(methyl)amino)propanoic Acid] | 100 μM: 52% | 100 μM: 60% | 100 μM: 59% | 100 μM: 81% | 100 μM: 71% |  |  | 
15 | O=C(O)C1=CCCN(CCO/N=C/c2ccccc2-c2ccc(Cl)cc2Cl)C1 [DDPM-2571] |  |  |  |  |  |  |  | pIC50 mGAT3 (mGAT3 [2]; [3H]GABA uptake): 4.35
16 | NCCC(=O)O [β-alanine] |  |  |  |  |  |  |  | pIC50 mGAT2 (mGAT2 [1]; Figure 2): 2.96
